Tests used:
[1] = target: T1, Alpha-1B adrenergic receptor (Rattus norvegicus, UniProt P15823); experiment: DRUGMATRIX: Alpha-1B adrenergic receptor radioligand binding (ligand: prazosin); type: cell membranes, Wistar, Liver, Membrane; conditions: Not Active = under 50% inhibition at 10 µM
T1 sequence (P15823 whole entry): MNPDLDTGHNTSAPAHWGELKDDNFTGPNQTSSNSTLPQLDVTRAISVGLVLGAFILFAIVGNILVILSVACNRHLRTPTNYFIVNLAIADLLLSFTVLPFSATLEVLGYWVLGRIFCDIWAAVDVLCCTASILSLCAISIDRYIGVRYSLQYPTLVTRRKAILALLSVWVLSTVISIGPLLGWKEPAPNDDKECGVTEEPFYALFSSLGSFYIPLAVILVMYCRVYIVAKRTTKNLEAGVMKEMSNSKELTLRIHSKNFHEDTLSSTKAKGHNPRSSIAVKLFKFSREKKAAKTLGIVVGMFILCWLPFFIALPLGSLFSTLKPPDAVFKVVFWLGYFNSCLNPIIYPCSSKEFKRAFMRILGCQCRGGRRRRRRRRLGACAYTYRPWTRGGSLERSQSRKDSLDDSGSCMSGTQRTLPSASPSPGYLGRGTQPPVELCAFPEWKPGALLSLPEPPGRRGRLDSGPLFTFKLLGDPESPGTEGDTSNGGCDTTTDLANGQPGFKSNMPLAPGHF

[2] = target: Beta-1 adrenergic receptor (Homo sapiens, UniProt P08588); experiment: DRUGMATRIX: Adrenergic beta1 radioligand binding (ligand: [125I] Cyanopindolol); type: cell membranes, CHO-K1, Membrane; conditions: Not Active = under 50% inhibition at 10 µM
[3] = DRUGMATRIX: Atrial Natriuretic Factor (ANF) radioligand binding (ligand: [125I] ANF (rat)); type: cell membranes, Cavia porcellus, Dunkin-Hartley, Adrenal gland, Membrane; conditions: Not Active = under 50% inhibition at 10 µM
Histamine H2 receptor = Histamine H2 receptor (Homo sapiens, UniProt P25021); type: cell membranes, CHO-K1, Membrane; note: in other assays of this panel Not Active means under 50% inhibition at 10 µM
[4] = target: Matrix metalloproteinase-9 (Homo sapiens, UniProt P14780); experiment: biochemical; type: cell-based;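 note: inhibition of isolated MMP-9 enzyme activity toward a synthetic peptide substrate, from the DrugMatrix protease screening panel; in other assays of this panel Not Active means under 50% inhibition at 10 µM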
D(3) dopamine receptor = D(3) dopamine receptor (Homo sapiens, UniProt P35462); experiment: DRUGMATRIX: Dopamine D3 radioligand binding (ligand: [3H] Spiperone); type: cell membranes, CHO, Membrane; conditions: for Ki: read-out: Ki
Chain of D(3) dopamine receptor (P35462 whole entry): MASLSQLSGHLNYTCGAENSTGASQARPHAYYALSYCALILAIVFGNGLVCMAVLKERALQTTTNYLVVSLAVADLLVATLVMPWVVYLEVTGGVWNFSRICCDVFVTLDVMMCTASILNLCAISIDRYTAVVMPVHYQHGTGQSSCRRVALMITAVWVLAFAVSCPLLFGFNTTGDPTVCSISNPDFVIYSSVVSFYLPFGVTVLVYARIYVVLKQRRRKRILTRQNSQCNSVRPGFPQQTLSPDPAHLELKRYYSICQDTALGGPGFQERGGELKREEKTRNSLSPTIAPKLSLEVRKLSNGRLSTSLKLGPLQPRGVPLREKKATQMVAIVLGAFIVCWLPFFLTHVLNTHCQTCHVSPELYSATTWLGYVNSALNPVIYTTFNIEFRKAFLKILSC

Chain of Histamine H2 receptor (P25021 whole entry): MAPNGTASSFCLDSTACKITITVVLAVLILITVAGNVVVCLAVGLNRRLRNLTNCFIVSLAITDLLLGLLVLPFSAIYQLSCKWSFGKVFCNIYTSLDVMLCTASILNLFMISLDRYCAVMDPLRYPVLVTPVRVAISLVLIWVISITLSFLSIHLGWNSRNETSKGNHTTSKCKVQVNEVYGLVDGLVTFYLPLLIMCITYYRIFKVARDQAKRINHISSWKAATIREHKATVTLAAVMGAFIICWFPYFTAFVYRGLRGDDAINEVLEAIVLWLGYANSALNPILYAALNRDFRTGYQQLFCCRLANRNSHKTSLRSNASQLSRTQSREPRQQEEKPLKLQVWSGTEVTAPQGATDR
Chain of Matrix metalloproteinase-9 (P14780 whole entry): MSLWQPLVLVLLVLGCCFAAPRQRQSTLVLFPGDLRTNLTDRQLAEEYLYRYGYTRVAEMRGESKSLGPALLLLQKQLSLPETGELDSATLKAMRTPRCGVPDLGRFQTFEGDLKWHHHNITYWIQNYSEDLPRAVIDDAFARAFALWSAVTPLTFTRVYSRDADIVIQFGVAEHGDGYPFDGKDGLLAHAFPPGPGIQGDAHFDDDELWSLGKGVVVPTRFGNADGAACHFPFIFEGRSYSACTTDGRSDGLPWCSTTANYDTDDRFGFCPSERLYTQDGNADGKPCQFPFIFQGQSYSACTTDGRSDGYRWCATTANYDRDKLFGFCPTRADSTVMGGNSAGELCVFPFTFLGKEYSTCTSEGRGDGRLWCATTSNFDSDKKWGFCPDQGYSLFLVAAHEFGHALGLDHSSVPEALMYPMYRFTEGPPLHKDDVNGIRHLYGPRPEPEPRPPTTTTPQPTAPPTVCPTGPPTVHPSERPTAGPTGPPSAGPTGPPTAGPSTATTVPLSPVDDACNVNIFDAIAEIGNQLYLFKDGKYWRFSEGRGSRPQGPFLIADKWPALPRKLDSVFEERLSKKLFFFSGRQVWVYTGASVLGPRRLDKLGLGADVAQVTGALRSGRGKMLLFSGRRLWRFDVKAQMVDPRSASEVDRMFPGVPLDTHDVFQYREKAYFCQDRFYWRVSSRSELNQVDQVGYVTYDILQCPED
Chain of Beta-1 adrenergic receptor (P08588 whole entry): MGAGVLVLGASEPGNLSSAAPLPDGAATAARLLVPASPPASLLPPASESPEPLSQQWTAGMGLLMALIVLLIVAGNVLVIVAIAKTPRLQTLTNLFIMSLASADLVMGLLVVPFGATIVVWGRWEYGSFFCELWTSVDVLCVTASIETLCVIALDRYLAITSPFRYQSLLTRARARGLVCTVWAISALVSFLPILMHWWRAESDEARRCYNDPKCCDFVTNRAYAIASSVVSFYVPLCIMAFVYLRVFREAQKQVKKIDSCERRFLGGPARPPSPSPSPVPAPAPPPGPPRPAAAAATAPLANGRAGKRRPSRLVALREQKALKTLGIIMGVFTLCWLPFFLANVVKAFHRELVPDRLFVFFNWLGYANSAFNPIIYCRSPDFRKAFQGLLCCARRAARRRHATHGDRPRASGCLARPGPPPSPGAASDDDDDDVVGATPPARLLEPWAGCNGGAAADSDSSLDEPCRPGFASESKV

| SMILES | IC50 [1] | IC50 ([2]; cho-k1) | IC50 [3] | Ki [3] | IC50 (Histamine H2 receptor; cho-k1) | IC50 [4] | IC50 (D(3) dopamine receptor; cho) | IC50 (D(3) dopamine receptor; read-out: IC50) [nM] | Ki (D(3) dopamine receptor) [nM] | IC50 ([4]; read-out: IC50) [nM] | IC50 ([2]; read-out: IC50) [nM] | Ki ([2]; read-out: Ki) [nM] | IC50 (Histamine H2 receptor; read-out: IC50) [nM] | Ki (Histamine H2 receptor; read-out: Ki) [nM] |
| --- | --- | --- | --- | --- | --- | --- | --- | --- | --- | --- | --- | --- | --- | --- |
| CC(C)(C)NC(=O)[C@@H]1C[C@@H]2CCCC[C@@H]2CN1C[C@@H](O)[C@H](Cc1ccccc1)NC(=O)[C@H](CC(N)=O)NC(=O)c1ccc2ccccc2n1 | Not Active | Not Active | Not Active | Not Active | Not Active | Not Active | – | – | – | – | – | – | – | – |
| CC(=O)[C@@]1(O)CC[C@H]2[C@@H]3C[C@H](C)C4=CC(=O)CC[C@]4(C)[C@H]3CC[C@@]21C | Not Active | Not Active | Not Active | Not Active | Not Active | Not Active | Not Active | – | – | – | – | – | – | – |
| N[C@@H](Cc1ccc(N(CCCl)CCCl)cc1)C(=O)O | Not Active | Not Active | Not Active | Not Active | Not Active | Not Active | Not Active | – | – | – | – | – | – | – |
| CCCCc1oc2ccccc2c1C(=O)c1cc(I)c(OCCN(CC)CC)c(I)c1 [AMIODARONE] | – | – | – | – | – | Not Active | – | – | – | – | – | – | – | – |
| OCCN(CCO)c1nc(N2CCCCC2)c2nc(N(CCO)CCO)nc(N3CCCCC3)c2n1 [DIPYRIDAMOLE] | Not Active | Not Active | Not Active | Not Active | Not Active | Not Active | Not Active | – | – | – | – | – | – | – |
| Cc1oncc1C(=O)Nc1ccc(C(F)(F)F)cc1 [LEFLUNOMIDE] | Not Active | Not Active | Not Active | Not Active | Not Active | Not Active | Not Active | – | – | – | – | – | – | – |
| c1ccc([C@H]2CN3CCSC3=N2)cc1 [LEVAMISOLE] | Not Active | Not Active | Not Active | Not Active | Not Active | Not Active | Not Active | – | – | – | – | – | – | – |
| N[C@@H](Cc1ccc(O)c(O)c1)C(=O)O [LEVODOPA] | Not Active | Not Active | Not Active | Not Active | Not Active | Not Active | Not Active | – | – | – | – | – | – | – |
| N[C@@H](Cc1cc(I)c(Oc2ccc(O)c(I)c2)c(I)c1)C(=O)O [LIOTHYRONINE] | Not Active | Not Active | – | – | Not Active | Not Active | Not Active | – | – | – | – | – | – | – |
| O=NN(CCCl)C(=O)NC1CCCCC1 [LOMUSTINE] | Not Active | Not Active | Not Active | Not Active | Not Active | Not Active | Not Active | – | – | – | – | – | – | – |
| CCOC(=O)N1CCC(=C2c3ccc(Cl)cc3CCc3cccnc32)CC1 [LORATADINE] | Not Active | Not Active | Not Active | Not Active | Not Active | Not Active | Not Active | – | – | – | – | – | – | – |
| Cn1ccnc1S [METHIMAZOLE] | Not Active | Not Active | Not Active | Not Active | Not Active | Not Active | Not Active | – | – | – | – | – | – | – |
| CC[C@@H](CO)NC(=O)[C@@H]1C=C2c3cccc4[nH]cc(c34)C[C@H]2N(C)C1 [METHYLERGONOVINE] | Not Active | – | Not Active | Not Active | Not Active | Not Active | – | 167 | 57 | – | – | – | – | – |
| COc1nc(C)nc(Cl)c1NC1=NCCN1 [MOXONIDINE] | Not Active | Not Active | Not Active | Not Active | Not Active | Not Active | Not Active | – | – | – | – | – | – | – |
| COc1c(C)c2c(c(O)c1C/C=C(\C)CCC(=O)O)C(=O)OC2 [MYCOPHENOLIC ACID] | Not Active | Not Active | Not Active | Not Active | Not Active | Not Active | Not Active | – | – | – | – | – | – | – |
| O=c1ncn2nc(Sc3ccc(F)cc3F)ccc2c1-c1c(Cl)cccc1Cl [NEFLAMAPIMOD] | Not Active | Not Active | Not Active | Not Active | Not Active | Not Active | Not Active | – | – | – | – | – | – | – |
| CN1CCN(CCCN2c3ccccc3Sc3ccc(Cl)cc32)CC1 [PROCHLORPERAZINE] | – | Not Active | – | – | Not Active | Not Active | – | – | – | – | – | – | – | – |
| CO[C@H]1/C=C/O[C@@]2(C)Oc3c(C)c(O)c4c(O)c(c(/C=N/N5CCN(C)CC5)c(O)c4c3C2=O)NC(=O)/C(C)=C\C=C\[C@H](C)[C@H](O)[C@@H](C)[C@@H](O)[C@@H](C)[C@H](OC(C)=O)[C@@H]1C [RIFAMPIN] | Not Active | Not Active | Not Active | Not Active | Not Active | Not Active | Not Active | – | – | – | – | – | – | – |
| Nc1nc2ccc(OC(F)(F)F)cc2s1 [RILUZOLE] | Not Active | Not Active | Not Active | Not Active | Not Active | Not Active | Not Active | – | – | – | – | – | – | – |
| Cc1nc2n(c(=O)c1CCN1CCC(c3noc4cc(F)ccc34)CC1)CCCC2 [RISPERIDONE] | – | Not Active | – | – | – | Not Active | – | – | – | – | – | – | – | – |
| C=CCC1(C(C)CCC)C(=O)NC(=O)NC1=O (centres undefined) [SECOBARBITAL] | Not Active | Not Active | Not Active | Not Active | Not Active | – | Not Active | – | – | 2640 | – | – | – | – |
| C[C@@H]1CN(c2c(F)c(N)c3c(=O)c(C(=O)O)cn(C4CC4)c3c2F)C[C@H](C)N1 [SPARFLOXACIN] | Not Active | Not Active | Not Active | Not Active | Not Active | Not Active | Not Active | – | – | – | – | – | – | – |
| Cc1noc(NS(=O)(=O)c2ccc(N)cc2)c1C [SULFISOXAZOLE] | Not Active | Not Active | Not Active | Not Active | Not Active | Not Active | Not Active | – | – | – | – | – | – | – |
| CSc1ccc(/C=C2/C(C)=C(CC(=O)O)c3cc(F)ccc32)cc1 [SULINDAC SULFIDE] | Not Active | Not Active | Not Active | Not Active | Not Active | Not Active | Not Active | – | – | – | – | – | – | – |
| Nc1c2c(nc3ccccc13)CCCC2 [TACRINE] | Not Active | Not Active | Not Active | Not Active | Not Active | Not Active | Not Active | – | – | – | – | – | – | – |
| CC/C(=C(\c1ccccc1)c1ccc(OCCN(C)C)cc1)c1ccccc1 [TAMOXIFEN] | – | – | – | – | – | Not Active | – | 1070 | 364 | – | 17300 | 9980 | 9400 | 9240 |
| CC(C)N1CCN(c2ccc(OCC3COC(Cn4cncn4)(c4ccc(Cl)cc4Cl)O3)cc2)CC1 (centres undefined) [TERCONAZOLE] | – | – | – | – | Not Active | Not Active | – | 4710 | 1600 | – | – | – | – | – |
| Nc1nc2nc[nH]c2c(=S)[nH]1 [THIOGUANINE] | Not Active | Not Active | Not Active | Not Active | Not Active | Not Active | Not Active | – | – | – | – | – | – | – |
| Cc1cccc(N(C)C(=S)Oc2ccc3ccccc3c2)c1 [TOLNAFTATE] | Not Active | Not Active | Not Active | Not Active | Not Active | Not Active | Not Active | – | – | – | – | – | – | – |
| NC[C@H]1CC[C@H](C(=O)O)CC1 [TRANEXAMIC ACID] | Not Active | Not Active | Not Active | Not Active | Not Active | Not Active | Not Active | – | – | – | – | – | – | – |

Reference: ChEMBL document CHEMBL1909046, “DrugMatrix in vitro pharmacology data”
